Where two headings read alike, the source gives them in different places.
Molecular target: T1, recombinant human CD38 (Homo sapiens, UniProt P28907)
T1 construct: purchased 71277
T1 sequence (P28907 1-300): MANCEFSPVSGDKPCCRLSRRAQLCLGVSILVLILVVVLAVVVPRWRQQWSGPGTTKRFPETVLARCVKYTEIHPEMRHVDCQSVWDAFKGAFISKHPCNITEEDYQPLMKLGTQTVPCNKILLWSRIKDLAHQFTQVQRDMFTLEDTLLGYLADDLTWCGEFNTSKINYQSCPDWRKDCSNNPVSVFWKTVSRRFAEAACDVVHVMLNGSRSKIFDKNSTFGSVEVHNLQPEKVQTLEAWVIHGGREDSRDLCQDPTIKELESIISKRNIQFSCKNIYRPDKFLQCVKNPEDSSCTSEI
Test: CD38 hydrolase in vitro enzymatic assay (ε-NAD+ substrate)
Format: biochemical
Description: Here, DC-5=Yellow Blend, DC-9=Purple Blend, DC-21-Green Blend, DC-13=Red Blend DCH-TIV 1.0 (Adult Centrum Multivitamins). The red blend included Apple Extract, Pomegranate Extract, Tomato Powder, Beet; the green blend included Olive Extract, Rosemary Extract, Green Coffee Bean Extract, Kale; the orange/yellow blend included Onion Extract, Ginger Extract, Grapefruit Extract, Carrot; and the purple/blue blend included Grape, Blueberry Extract, Currant, and Elderberry as listed above.
Assay Conditions: 10 μl of the sample or reference inhibitor was added to 20 μl of enzyme solution and pre-incubated for 30 minutes. The enzymatic reactions were started by the addition of 20 μl of the substrate ε-NAD+, for a total reaction volume of 50 μl. Reaction time was 10 minutes, and then fluorescence intensity at an excitation of 300 nm and an emission of 410 nm was read using a Tecan Infinite M1000 microplate reader.
Data Analysis: Enzyme activity assays were performed in duplicates at each concentration. The fluorescence intensity data were analyzed and compared. In the absence of the compound, the intensity in each data set was defined as 100% (Ce) activity. In the absence of enzyme, the intensity in each data set was defined as 0% (C0) activity. […] Compound fluorescence was removed by subtracting fluorescence at reaction time=0.

Q: Which results are given for `O=c1cc(-c2ccc(O)cc2)oc2cc(O)cc(O)c12` [Apigenin]?
A: Net Signal (Fluorescence counts) Repeat 1 (1 μM, Table 61): 3461 Fluorescence counts; Net Signal (Fluorescence counts) Repeat 2 (1 μM, Table 61): 3761 Fluorescence counts; inhibition at 1 µM (1 μM, Table 61): 14%; activity at 1 µM (1 μM, Table 61, read-out: Activity (%) Repeat 1): 82%; activity at 1 µM (1 μM, Table 61, read-out: Activity (%) Repeat 2): 89%; Net Signal (Fluorescence counts) Repeat 1 (1 μM, Table 62): 8650 Fluorescence counts; Net Signal (Fluorescence counts) Repeat 2 (1 μM, Table 62): 8614 Fluorescence counts; inhibition at 1 µM (1 μM, Table 62): 6%; activity at 1 µM (1 μM, Table 62, read-out: Activity (%) Repeat 1): 94%; activity at 1 µM (1 μM, Table 62, read-out: Activity (%) Repeat 2): 94%; Net Signal (Fluorescence counts) Repeat 1 (1 μM, Table 63): 11531 Fluorescence counts; Net Signal (Fluorescence counts) Repeat 2 (1 μM, Table 63): 11647 Fluorescence counts; inhibition at 1 µM (1 μM, Table 63): 14%; activity at 1 µM (1 μM, Table 63, read-out: Activity (%) Repeat 1): 86%; activity at 1 µM (1 μM, Table 63, read-out: Activity (%) Repeat 2): 86%; Net Signal (Fluorescence counts) Repeat 1 (1 μM, TABLE 64): 4138 counts; Net Signal (Fluorescence counts) Repeat 2 (1 μM, TABLE 64): 3883 counts; inhibition at 1 µM (1 μM, TABLE 64): 8%; activity at 1 µM (1 μM, TABLE 64, read-out: Activity (%) Repeat 1): 95%; activity at 1 µM (1 μM, TABLE 64, read-out: Activity (%) Repeat 2): 89%; Net Signal (Fluorescence counts) Repeat 1 (10 μM, Table 61): 647 Fluorescence counts; Net Signal (Fluorescence counts) Repeat 2 (10 μM, Table 61): 618 Fluorescence counts; inhibition at 10 µM (10 μM, Table 61): 85%; activity at 10 µM (10 μM, Table 61, read-out: Activity (%) Repeat 1): 15%; activity at 10 µM (10 μM, Table 61, read-out: Activity (%) Repeat 2): 14%; Net Signal (Fluorescence counts) Repeat 1 (10 μM, Table 62): 4670 Fluorescence counts; Net Signal (Fluorescence counts) Repeat 2 (10 μM, Table 62): 5416 Fluorescence counts; inhibition at 10 µM (10 μM, Table 62): 45%; activity at 10 µM (10 μM, Table 62, read-out: Activity (%) Repeat 1): 51%; activity at 10 µM (10 μM, Table 62, read-out: Activity (%) Repeat 2): 59%; Net Signal (Fluorescence counts) Repeat 1 (10 μM, Table 63): 7118 Fluorescence counts; Net Signal (Fluorescence counts) Repeat 2 (10 μM, Table 63): 7228 Fluorescence counts; inhibition at 10 µM (10 μM, Table 63): 47%; activity at 10 µM (10 μM, Table 63, read-out: Activity (%) Repeat 1): 53%; activity at 10 µM (10 μM, Table 63, read-out: Activity (%) Repeat 2): 54%; Net Signal (Fluorescence counts) Repeat 1 (10 μM, TABLE 64): 3091 counts; Net Signal (Fluorescence counts) Repeat 2 (10 μM, TABLE 64): 3057 counts; inhibition at 10 µM (10 μM, TABLE 64): 30%; activity at 10 µM (10 μM, TABLE 64, read-out: Activity (%) Repeat 1): 70%; activity at 10 µM (10 μM, TABLE 64, read-out: Activity (%) Repeat 2): 70%; Net Signal (Fluorescence counts) Repeat 1 (100 μM, Table 61): 185 Fluorescence counts; Net Signal (Fluorescence counts) Repeat 2 (100 μM, Table 61): 135 Fluorescence counts; inhibition at 100 µM (100 μM, Table 61): 96%; activity at 100 µM (100 μM, Table 61, read-out: Activity (%) Repeat 1): 4%; activity at 100 µM (100 μM, Table 61, read-out: Activity (%) Repeat 2): 3%; Net Signal (Fluorescence counts) Repeat 1 (100 μM, Table 62): 1979 Fluorescence counts; Net Signal (Fluorescence counts) Repeat 2 (100 μM, Table 62): 2165 Fluorescence counts; inhibition at 100 µM (100 μM, Table 62): 78%; activity at 100 µM (100 μM, Table 62, read-out: Activity (%) Repeat 1): 21%; activity at 100 µM (100 μM, Table 62, read-out: Activity (%) Repeat 2): 23%; Net Signal (Fluorescence counts) Repeat 1 (100 μM, Table 63): 5012 Fluorescence counts; Net Signal (Fluorescence counts) Repeat 2 (100 μM, Table 63): 5473 Fluorescence counts; inhibition at 100 µM (100 μM, Table 63): 61%; activity at 100 µM (100 μM, Table 63, read-out: Activity (%) Repeat 1): 37%; activity at 100 µM (100 μM, Table 63, read-out: Activity (%) Repeat 2): 40%; Net Signal (Fluorescence counts) Repeat 1 (100 μM, TABLE 64): 632 counts; Net Signal (Fluorescence counts) Repeat 2 (100 μM, TABLE 64): 728 counts; inhibition at 100 µM (100 μM, TABLE 64): 85%; activity at 100 µM (100 μM, TABLE 64, read-out: Activity (%) Repeat 1): 14%; activity at 100 µM (100 μM, TABLE 64, read-out: Activity (%) Repeat 2): 16%

Reference: US11752188B2, “Compositions and methods for nutritional supplements” (DailyColors Health Inc., priority 2020, dated 2023)
